# Source: patent publication US20130338061A1, “Salts and Polymorphs of Sulfamide NS3 Inhibitors” (priority 2010, published 2013)
# How the values were obtained:
# [1] = target: HCV NS3-4A serine protease (full-length NS3-4A protein, genotype 1a, strain HCV-1) (Hepatitis C virus genotype 1a, UniProt P26664); assay: HCV NS3-4A protease assay; type: biochemical; settings: fluorogenic peptide substrate
# Method: The inhibitory activity of Compound X against HCV NS3-4A serine protease is determined in a homogenous assay using the full-length NS3-4A protein (genotype 1a, strain HCV-1) and a commercially available internally-quenched fluorogenic peptide substrate as described by Taliani, M., et al. 1996 Anal. Biochem. 240:60-67, which is incorporated by reference in its entirety.
# [2] = test system: subgenomic genotype 1b HCV replicon cell line (Huh-Luc/neo-ET); assay: Luciferase-based HCV replicon assay; type: cell-based; settings: Hepatitis C virus; Huh-Luc/neo-ET replicon cells, 48-h treatment, 10% FBS; read-out: IC50 in replicon assay (luciferase activity reduced by 50%)
# Method: The antiviral activity and cytotoxicity of Compound X is determined using a subgenomic genotype 1b HCV replicon cell line (Huh-Luc/neo-ET) containing a luciferase reporter gene, the expression of which is under the control of HCV RNA replication and translation. Briefly, 5,000 replicon cells are seeded in each well of 96-well tissue culture plates and are allowed to attach in complete culture media without G418 overnight. On the next day, the culture media are replaced with media containing serially diluted Compound X in the presence of 10% FBS and 0.5% DMSO. After a 48-h treatment with the compound, the remaining luciferase activities in the cells are determined using BriteLite reagent (Perkin Elmer, Wellesley, Mass.) with a LMaxII plate reader (Molecular Probe, Invitrogen). Each data point represents the average of four replicates in cell culture. IC50 is the concentration of the compound at which the luciferase activity in the replicon cells is reduced by 50%. The cytotoxicity of the compound is evaluated using an MTS-based cell viability assay.
# Sequence of HCV NS3-4A serine protease (full-length NS3-4A protein, genotype 1a, strain HCV-1) (P26664 1658-1711): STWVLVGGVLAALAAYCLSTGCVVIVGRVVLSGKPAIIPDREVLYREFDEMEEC
# Sequence of HCV NS3-4A serine protease (full-length NS3-4A protein, genotype 1a, strain HCV-1) (P26664 1027-1657): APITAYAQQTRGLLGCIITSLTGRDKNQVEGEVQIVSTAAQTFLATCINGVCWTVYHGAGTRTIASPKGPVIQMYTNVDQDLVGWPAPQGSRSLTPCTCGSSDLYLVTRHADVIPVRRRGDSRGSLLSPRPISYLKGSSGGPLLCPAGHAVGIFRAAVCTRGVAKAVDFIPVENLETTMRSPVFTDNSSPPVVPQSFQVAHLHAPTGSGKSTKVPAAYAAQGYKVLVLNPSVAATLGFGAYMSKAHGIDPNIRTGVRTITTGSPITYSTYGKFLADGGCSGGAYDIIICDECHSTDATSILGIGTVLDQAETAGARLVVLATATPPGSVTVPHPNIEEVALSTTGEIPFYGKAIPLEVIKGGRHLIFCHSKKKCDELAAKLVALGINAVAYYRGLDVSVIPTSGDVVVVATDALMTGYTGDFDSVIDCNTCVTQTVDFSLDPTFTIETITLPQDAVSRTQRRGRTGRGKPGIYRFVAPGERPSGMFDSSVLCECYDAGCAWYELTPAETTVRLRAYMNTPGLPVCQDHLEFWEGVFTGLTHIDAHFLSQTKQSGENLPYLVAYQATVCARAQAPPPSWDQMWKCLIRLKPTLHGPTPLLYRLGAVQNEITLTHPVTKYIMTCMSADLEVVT
smiles,measurement,setting,value
"CC[C@@H]1C[C@]1(NC(=O)[C@@H]1C[C@@]2(CN1C(=O)[C@@H](NC(=O)[C@@H](NC(=O)[C@@H]1CCCCN1C(C)C)C1CCCCC1)C(C)(C)C)C(C)(C)C21CCC1)C(=O)NS(=O)(=O)N1CCCC1 [Compound X, (5R,8S)-7-[(2S)-2-{[(2S)-2-cyclohexyl-2-({[(2S)-1-isopropylpiperidin-2-yl]carbonyl}amino)acetyl]amino}-3,3-dimethylbutanoyl]-N-{(1R,2R)-2-ethyl-1-[(pyrrolidin-1-ylsulfonyl)carbamoyl]cyclopropyl}-10,10-dimethyl-7-azadispiro[3.0.4.1]decane-8-carboxamide]",IC50,[1],4.5 nM
same,IC50,[2],< 100 nM
